Measurements published in ChEMBL document CHEMBL4017472, “New modified 2-aminobenzimidazole nucleosides: Synthesis and evaluation of their activity against herpes simplex virus type 1” (Bioorg Med Chem Lett, 2017).

Key:
[1] = Selectivity index, ratio of MCC for African green monkey Vero E6 cells to IC50 for HSV-1 L2 infected in African green monkey Vero E6 cells; parameters: species or system Vero C1008
[2] = Cytotoxicity against African green monkey Vero E6 cells measured after 3 days by trypan blue assay; type: cell-based, Vero C1008; conditions: chlorocebus sabaeus
Human alphaherpesvirus 1 [3] = test: Antiviral activity against HSV1 L2 infected in African green monkey Vero E6 cells assessed as reduction in virus-induced cytopathic effect; type: functional; conditions: Human alphaherpesvirus 1, L2, Vero C1008
Human alphaherpesvirus 1 [4] = test: Antiviral activity against acyclovir and foscarnet-resistant HSV-1 L2 infected in African green monkey Vero E6 cells assessed as reduction in virus-induced cytopathic effect; type: functional; conditions: Human alphaherpesvirus 1, L2, Vero C1008
Human alphaherpesvirus 1 [5] = test: Antiviral activity against HSV-1 L2/Rp-ACV/2 infected in African green monkey Vero E6 cells assessed as reduction in virus-induced cytopathic effect; type: functional; conditions: Human alphaherpesvirus 1, L2/Rp-ACV/2, Vero C1008
Human alphaherpesvirus 1 [6] = test: Antiviral activity against acyclovir and cidofovir-resistant HSV-1 L2 infected in African green monkey Vero E6 cells assessed as reduction in virus-induced cytopathic effect; type: functional; conditions: Human alphaherpesvirus 1, L2, Vero C1008
[7] = Selectivity index, ratio of MCC for African green monkey Vero E6 cells to IC50 for acyclovir and foscarnet-resistant HSV-1 L2 infected in African green monkey Vero E6 cells; parameters: species or system Vero C1008
[8] = Selectivity index, ratio of MCC for African green monkey Vero E6 cells to IC50 for acyclovir-resistant HSV-1 L2 infected in African green monkey Vero E6 cells; parameters: species or system Vero C1008
Human alphaherpesvirus 1 [9] = test: Antiviral activity against foscarnet-resistant HSV-1 F+ infected in African green monkey Vero E6 cells assessed as reduction in virus-induced cytopathic effect; type: functional; conditions: Human alphaherpesvirus 1, F+, Vero C1008
Human alphaherpesvirus 1 [10] = test: Antiviral activity against acyclovir-resistant HSV-1 L2 infected in African green monkey Vero E6 cells assessed as reduction in virus-induced cytopathic effect; type: functional; conditions: Human alphaherpesvirus 1, L2, Vero C1008
[11] = Selectivity index, ratio of MCC for African green monkey Vero E6 cells to IC50 for HSV-1 L2/Rp-ACV/2 infected in African green monkey Vero E6 cells; parameters: species or system Vero C1008
[12] = Selectivity index, ratio of MCC for African green monkey Vero E6 cells to IC50 for acyclovir and cidofovir-resistant HSV-1 L2 infected in African green monkey Vero E6 cells; parameters: species or system Vero C1008
[13] = Selectivity index, ratio of MCC for African green monkey Vero E6 cells to IC50 for HSV-1 F+ infected in African green monkey Vero E6 cells; parameters: species or system Vero C1008

SMILES: CC(C)Nc1nc2cc(Cl)c(Cl)cc2n1[C@H]1O[C@@H](CO)[C@H](O)[C@@H]1O [MARIBAVIR]
- Selectivity Index [1]: 1
- MCC at 72 h [2]: 665 µM
- IC50 (Human alphaherpesvirus 1 [3]): 665 µM
- IC95 (Human alphaherpesvirus 1 [3]): > 665 µM

SMILES: Nc1nc2c(ncn2COCCO)c(=O)[nH]1 [ACYCLOVIR]
- IC50 (Human alphaherpesvirus 1 [4]): > 444 µM
- IC95 (Human alphaherpesvirus 1 [4]): > 444 µM
- Selectivity Index [1]: >256
- IC50 (Human alphaherpesvirus 1 [5]): 27.8 µM
- IC95 (Human alphaherpesvirus 1 [5]): 111 µM
- IC50 (Human alphaherpesvirus 1 [6]): 17.3 µM
- IC95 (Human alphaherpesvirus 1 [6]): 139 µM
- Selectivity Index [7]: >1
- MCC at 72 h [2]: > 444 µM
- Selectivity Index [8]: >1
- IC50 (Human alphaherpesvirus 1 [9]): 3.5 µM
- IC95 (Human alphaherpesvirus 1 [9]): 13.9 µM
- IC50 (Human alphaherpesvirus 1 [10]): > 444 µM
- IC95 (Human alphaherpesvirus 1 [10]): > 444 µM
- Selectivity Index [11]: 16
- IC50 (Human alphaherpesvirus 1 [3]): 1.73 µM
- IC95 (Human alphaherpesvirus 1 [3]): 6.9 µM
- Selectivity Index [12]: >26
- Selectivity Index [13]: >128

SMILES: O.O.O.O.O.O.O=C([O-])P(=O)([O-])[O-].[Na+].[Na+].[Na+]
- IC50 (Human alphaherpesvirus 1 [4]): 417 µM
- IC95 (Human alphaherpesvirus 1 [4]): > 833 µM
- Selectivity Index [1]: 8
- IC50 (Human alphaherpesvirus 1 [5]): 52 µM
- IC95 (Human alphaherpesvirus 1 [5]): 104 µM
- IC50 (Human alphaherpesvirus 1 [6]): 104 µM
- IC95 (Human alphaherpesvirus 1 [6]): 208 µM
- Selectivity Index [7]: 2
- MCC at 72 h [2]: 833 µM
- Selectivity Index [8]: 8
- IC50 (Human alphaherpesvirus 1 [9]): 833 µM
- IC95 (Human alphaherpesvirus 1 [9]): > 833 µM
- IC50 (Human alphaherpesvirus 1 [10]): 104 µM
- IC95 (Human alphaherpesvirus 1 [10]): 208 µM
- Selectivity Index [11]: 16
- IC50 (Human alphaherpesvirus 1 [3]): 104 µM
- IC95 (Human alphaherpesvirus 1 [3]): 208 µM
- Selectivity Index [12]: 8
- Selectivity Index [13]: 1

SMILES: Nc1ccn(C[C@@H](CO)OCP(=O)(O)O)c(=O)n1.O.O [CIDOFOVIR]
- IC50 (Human alphaherpesvirus 1 [4]): 7 µM
- IC95 (Human alphaherpesvirus 1 [4]): 27.9 µM
- Selectivity Index [1]: >26
- IC50 (Human alphaherpesvirus 1 [5]): 1.8 µM
- IC95 (Human alphaherpesvirus 1 [5]): 27.9 µM
- IC50 (Human alphaherpesvirus 1 [6]): 112 µM
- IC95 (Human alphaherpesvirus 1 [6]): 895 µM
- Selectivity Index [7]: >51
- MCC at 72 h [2]: > 358 µM
- Selectivity Index [8]: >26
- IC50 (Human alphaherpesvirus 1 [9]): 27.9 µM
- IC95 (Human alphaherpesvirus 1 [9]): 448 µM
- IC50 (Human alphaherpesvirus 1 [10]): 14 µM
- IC95 (Human alphaherpesvirus 1 [10]): 55.9 µM
- Selectivity Index [11]: >204
- IC50 (Human alphaherpesvirus 1 [3]): 14 µM
- IC95 (Human alphaherpesvirus 1 [3]): 55.9 µM
- Selectivity Index [12]: >6.4
- Selectivity Index [13]: >13

SMILES: Nc1nc2cc(F)c(F)cc2n1[C@H]1C[C@H](O)[C@@H](CO)O1
- Selectivity Index [1]: >4
- MCC at 72 h [2]: > 3500 µM
- IC50 (Human alphaherpesvirus 1 [3]): 876 µM
- IC95 (Human alphaherpesvirus 1 [3]): 3510 µM

SMILES: NC(=O)c1ncn([C@@H]2O[C@H](CO)[C@@H](O)[C@H]2O)n1 [RIBAVIRIN]
- IC50 (Human alphaherpesvirus 1 [4]): 1020 µM
- IC95 (Human alphaherpesvirus 1 [4]): > 4100 µM
- Selectivity Index [1]: >8
- IC50 (Human alphaherpesvirus 1 [5]): 1020 µM
- IC95 (Human alphaherpesvirus 1 [5]): > 4100 µM
- IC50 (Human alphaherpesvirus 1 [6]): 1020 µM
- IC95 (Human alphaherpesvirus 1 [6]): > 4100 µM
- Selectivity Index [7]: >4
- MCC at 72 h [2]: > 4100 µM
- Selectivity Index [8]: >4
- IC95 (Human alphaherpesvirus 1 [9]): > 4100 µM
- IC50 (Human alphaherpesvirus 1 [10]): 1020 µM
- IC95 (Human alphaherpesvirus 1 [10]): > 4100 µM
- Selectivity Index [11]: >4
- IC50 (Human alphaherpesvirus 1 [3]): 512 µM
- IC95 (Human alphaherpesvirus 1 [3]): 2050 µM
- Selectivity Index [12]: >4
- Selectivity Index [13]: >4
